{"source": "paper PMC10975748", "key": {"[1]": {"system": "anti-TTX monoclonal antibody", "assay_type": "binding"}, "[2]": {"system": "isolated mouse phrenic-nerve-hemi-diaphragm muscle preparations", "assay": "Nerve-evoked isometric contraction, reversal of CiTX neuromuscular block", "conditions": "100 µM, in continuous presence of GYM-A, PnTX-A, PnTX-G or PteTX-1"}, "[3]": {"target": "T1, muscle-type α12βεδ nAChRs (Mus musculus, UniProt P02716+P04756+P20782)", "T1 construct": "skeletal muscle expressing α12βεδ nAChRs; from tissue; host or cells: isolated mouse phrenic-nerve-hemi-diaphragm muscle", "T1 sequence (P09690 24-501)": "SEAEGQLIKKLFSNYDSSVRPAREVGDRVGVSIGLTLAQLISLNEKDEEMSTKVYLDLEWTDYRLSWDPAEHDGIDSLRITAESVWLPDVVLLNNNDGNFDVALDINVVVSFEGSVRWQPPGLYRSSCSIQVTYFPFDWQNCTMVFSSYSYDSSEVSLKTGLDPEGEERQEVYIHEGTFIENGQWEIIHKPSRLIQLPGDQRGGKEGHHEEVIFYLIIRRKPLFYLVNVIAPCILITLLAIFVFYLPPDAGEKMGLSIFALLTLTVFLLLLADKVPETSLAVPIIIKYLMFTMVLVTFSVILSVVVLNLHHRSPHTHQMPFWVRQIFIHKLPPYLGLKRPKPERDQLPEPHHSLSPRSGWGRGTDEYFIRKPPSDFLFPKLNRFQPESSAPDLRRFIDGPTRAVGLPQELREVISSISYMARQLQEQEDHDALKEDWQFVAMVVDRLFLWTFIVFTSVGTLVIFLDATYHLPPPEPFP", "T1 sequence (P02716 25-520)": "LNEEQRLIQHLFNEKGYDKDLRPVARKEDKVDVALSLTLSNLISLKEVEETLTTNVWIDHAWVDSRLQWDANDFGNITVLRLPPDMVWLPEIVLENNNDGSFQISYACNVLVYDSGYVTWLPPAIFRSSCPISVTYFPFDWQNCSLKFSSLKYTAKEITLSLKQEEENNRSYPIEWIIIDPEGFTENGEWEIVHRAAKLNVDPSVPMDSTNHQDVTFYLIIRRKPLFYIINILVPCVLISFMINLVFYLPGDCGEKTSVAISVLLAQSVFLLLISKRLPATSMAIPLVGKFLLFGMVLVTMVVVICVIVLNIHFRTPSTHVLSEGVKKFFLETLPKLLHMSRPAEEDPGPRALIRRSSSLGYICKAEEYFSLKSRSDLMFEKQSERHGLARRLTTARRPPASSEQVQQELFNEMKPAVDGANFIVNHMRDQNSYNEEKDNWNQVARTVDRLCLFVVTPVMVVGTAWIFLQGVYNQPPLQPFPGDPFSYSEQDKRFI", "T1 sequence (P04756 21-457)": "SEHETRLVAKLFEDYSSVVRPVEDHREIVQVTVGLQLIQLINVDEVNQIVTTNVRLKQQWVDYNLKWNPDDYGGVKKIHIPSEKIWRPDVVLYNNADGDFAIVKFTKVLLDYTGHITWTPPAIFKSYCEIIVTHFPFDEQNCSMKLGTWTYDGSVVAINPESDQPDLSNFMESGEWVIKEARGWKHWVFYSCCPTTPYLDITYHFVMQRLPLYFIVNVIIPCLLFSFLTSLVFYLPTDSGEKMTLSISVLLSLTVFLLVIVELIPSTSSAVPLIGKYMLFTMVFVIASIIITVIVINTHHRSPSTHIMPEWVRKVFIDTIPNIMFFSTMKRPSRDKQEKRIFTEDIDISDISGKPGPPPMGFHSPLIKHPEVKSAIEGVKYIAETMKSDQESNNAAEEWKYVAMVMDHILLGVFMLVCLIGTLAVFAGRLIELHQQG", "T1 sequence (P20782 21-493)": "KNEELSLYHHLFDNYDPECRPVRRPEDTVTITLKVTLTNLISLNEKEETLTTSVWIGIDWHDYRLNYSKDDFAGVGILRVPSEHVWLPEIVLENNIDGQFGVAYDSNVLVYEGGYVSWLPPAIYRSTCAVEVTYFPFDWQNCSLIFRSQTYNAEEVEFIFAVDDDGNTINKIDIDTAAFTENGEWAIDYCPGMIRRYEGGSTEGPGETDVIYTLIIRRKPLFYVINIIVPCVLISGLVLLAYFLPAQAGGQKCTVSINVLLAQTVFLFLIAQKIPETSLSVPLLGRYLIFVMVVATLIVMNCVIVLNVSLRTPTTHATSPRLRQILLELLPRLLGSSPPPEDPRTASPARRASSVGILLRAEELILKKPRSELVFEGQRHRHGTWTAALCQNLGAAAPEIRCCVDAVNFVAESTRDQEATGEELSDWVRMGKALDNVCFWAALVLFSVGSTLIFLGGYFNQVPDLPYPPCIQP", "assay": "Nerve-evoked isometric contraction, block by cyclic imine toxins"}, "[4]": {"system": "mice injected with venoms", "assay": "Recovery from neuroparalysis in mice injected with neurotoxic snake venoms", "assay_type": "in vivo", "excerpt": "(§1) Abstract: Envenomation by snakes is a major neglected human disease even though it affects millions of people with sequelae and kills hundreds of thousands of them. A large toll is taken by snakes that inject neurotoxic venoms capable of inducing complete degeneration of motor axon terminals with rapid development of a peripheral neuroparalysis with severe respiratory deficit. The major venom component causing this degeneration are presynaptic acting PLA2s that hydrolyse phospholipids in lysophospholipids and fatty acids that induce large entry of Ca^2+ into the neuronal cytosol. This leads to the activation of endogenous hydrolases that cause a complete degeneration of the motor axon terminals, which is followed by a regeneration program, only partially known in molecular terms. We recently identified two types of membrane receptors involved in the regeneration of the paralysed neuromuscular junction (NMJ). Here we report that this paralysis activates a proregenerative molecular axis, consisting of the CXCR4 receptor expressed at the stump of degenerated motor axon terminals and by the release of its ligand CXCL12α by surrounding Schwann cells. […]"}, "[5]": {"excerpt": "as §1"}, "[6]": {"conditions": "analogues purified from pufferfish liver; patch clamp"}, "human mitoTRPV1": {"target": "human mitoTRPV1 (Homo sapiens, UniProt Q8NER1)", "sequence (Q8NER1 434-839)": "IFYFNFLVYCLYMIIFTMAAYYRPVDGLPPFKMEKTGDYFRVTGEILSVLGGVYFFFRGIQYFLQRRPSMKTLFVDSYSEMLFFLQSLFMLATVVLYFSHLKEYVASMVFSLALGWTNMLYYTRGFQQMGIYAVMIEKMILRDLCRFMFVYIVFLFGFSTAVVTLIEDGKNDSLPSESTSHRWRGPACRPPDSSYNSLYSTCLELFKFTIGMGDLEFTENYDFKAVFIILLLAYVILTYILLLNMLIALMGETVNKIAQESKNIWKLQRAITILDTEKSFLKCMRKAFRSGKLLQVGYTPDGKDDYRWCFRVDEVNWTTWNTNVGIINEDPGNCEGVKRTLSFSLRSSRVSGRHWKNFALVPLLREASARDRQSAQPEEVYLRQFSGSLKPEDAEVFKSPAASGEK", "assay_type": "cell-based"}, "CB1 receptors": {"target": "T2, CB1 receptors (Homo sapiens, UniProt P21554)", "T2 construct": "expressed in transfected cells; host or cells: Xenopus laevis oocytes", "T2 sequence (P21554 whole entry)": "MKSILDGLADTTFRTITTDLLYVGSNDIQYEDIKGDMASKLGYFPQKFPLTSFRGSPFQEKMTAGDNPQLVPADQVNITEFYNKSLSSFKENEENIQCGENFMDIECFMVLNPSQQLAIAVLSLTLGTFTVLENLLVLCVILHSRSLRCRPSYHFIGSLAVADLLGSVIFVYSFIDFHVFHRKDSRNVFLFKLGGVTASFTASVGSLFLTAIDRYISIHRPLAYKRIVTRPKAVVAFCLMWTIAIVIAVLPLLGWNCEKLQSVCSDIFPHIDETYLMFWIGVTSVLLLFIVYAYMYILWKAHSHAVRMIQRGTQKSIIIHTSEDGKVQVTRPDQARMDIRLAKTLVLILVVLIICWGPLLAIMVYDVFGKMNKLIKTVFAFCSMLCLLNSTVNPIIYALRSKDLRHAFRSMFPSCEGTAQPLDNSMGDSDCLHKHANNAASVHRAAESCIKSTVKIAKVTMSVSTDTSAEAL", "assay": "Two-electrode voltage-clamp, CB1-GIRK1/2-RGS4 system in Xenopus laevis oocytes", "assay_type": "cell-based", "conditions": "GIRK1/2 currents induced by WIN55,212-2, Xenopus oocytes", "excerpt": "(§2) Abstract: Cannabinoid receptors (CB1 and CB2) are promising targets for diverse diseases, such as pain, inflammation, and neurological diseases. However, only a few ligands of CB receptors have reached clinical application so far. In the present study, we focused on the venom of Stephanoconus snails and found an endocannabinoid-like molecule, oleoyl serotonin (OS), active on CB1 and CB2. To determine the effects of OS, CB1 and CB2 receptors were functionally expressed in Xenopus laevis oocytes, together with the G protein-coupled inwardly rectifier potassium channels (GIRK1/2), and a regulator of G protein signalling (RGS4). Ion currents were measured with a two-electrode voltage-clamp system. […] To the best of our knowledge, OS is the first venom-derived ligand modulating CB receptors. […]. To investigate the critical domains of the CB receptor for OS activity, we constructed a chimeric CB1/2 receptor by replacing the transmembrane domain V (TMV)-intracellular loop 3 (ICL3)-TMVI domain (TMV-ICL3-TMVI) of the CB2 receptor with that of the CB1 receptor. […] This study highlights the potential of animal venom components as a promising library for the discovery of novel CB receptor ligands."}, "CB2 receptors": {"target": "T3, CB2 receptors (Homo sapiens, UniProt P34972)", "T3 construct": "expressed in transfected cells; host or cells: Xenopus laevis oocytes", "T3 sequence (P34972 whole entry)": "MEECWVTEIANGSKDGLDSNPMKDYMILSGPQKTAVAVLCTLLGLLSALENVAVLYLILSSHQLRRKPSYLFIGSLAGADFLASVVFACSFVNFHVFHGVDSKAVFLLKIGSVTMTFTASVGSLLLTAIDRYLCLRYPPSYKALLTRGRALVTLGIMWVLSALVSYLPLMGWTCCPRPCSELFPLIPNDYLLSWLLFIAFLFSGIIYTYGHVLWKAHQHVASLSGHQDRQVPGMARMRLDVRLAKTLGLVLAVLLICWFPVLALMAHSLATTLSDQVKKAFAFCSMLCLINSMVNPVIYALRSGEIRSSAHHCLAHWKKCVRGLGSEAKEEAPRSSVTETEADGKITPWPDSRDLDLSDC", "assay": "Two-electrode voltage-clamp, CB2 with GIRK1/2 and RGS4 in Xenopus laevis oocytes", "assay_type": "cell-based", "conditions": "GIRK1/2, RGS4", "excerpt": "as §2"}, "[7]": {"system": "serotonin, histamine, opioid and nicotinic receptors, TRP channels or voltage-gated sodium, potassium or calcium channels", "assay": "Selectivity of OS on other receptors and channels", "assay_type": "cell-based"}, "mice": {"system": "mice", "assay": "In vivo evaluation of OS on brain-related neurological functions"}}}
{"molecule": "5,11-dideoxyTTX", "values": [{"measurement": "cross-reactivity (cross-reactivity factors, CRFs)", "setting": "[1]", "value": "lower"}]}
{"molecule": "Nc1ccncc1N", "note": "[3,4-DAP, 3,4-Diaminopyridine]", "values": [{"measurement": "reversal of neuromuscular block caused by the CiTX", "setting": "[2]", "value": "completely reverses"}]}
{"molecule": "C=C1CCCC2=NC[C@H](C)[C@@H](C)C[C@@]23CCC(C(=O)O)=C[C@@H]3[C@@H]2O[C@]3(C[C@H]4CCC[C@@]5(CC[C@@]6(O[C@@H](CC[C@@]6(C)O)C1)O5)O4)C[C@@H](C)[C@@H](O)[C@H]2O3", "note": "[PnTX-A]", "values": [{"measurement": "type of inhibition of α12βεδ nAChRs", "setting": "[3]", "value": "competitive and reversible inhibitors"}]}
{"molecule": "CCCn1nc(C(=O)N2CCCCC2)c2c1CCC(NCCc1ccncc1)C2", "note": "(centres unmarked) [NUCC-390]", "values": [{"measurement": "time of recovery from neuroparalysis", "setting": "[4]; determined by imaging, electrophysiological methods and lung ventilation", "value": "shortens the time of recovery from neuroparalysis"}, {"measurement": "efficacy in mice injected with venoms", "setting": "[4]; venoms of three Bungarus species, Oxyuranus scutellatus, Micrurus nigrocinctus, Vipera ammodytes and V. aspis", "value": "very effective"}, {"measurement": "blood brain barrier crossing", "setting": "[5]", "value": "does not cross the blood brain barrier"}, {"measurement": "toxicity", "setting": "[5]", "value": "non-toxic"}]}
{"molecule": "5,6,11-trideoxyTTX", "values": [{"measurement": "cross-reactivity (cross-reactivity factors, CRFs)", "setting": "[1]", "value": "lower"}, {"measurement": "toxicity (toxicity equivalency factors, TEFs)", "setting": "[6]", "value": "lower"}]}
{"molecule": "C=C(C)[C@]12C[C@@H](C)[C@@]34O[C@](Cc5ccccc5)(O[C@@H]1[C@@H]3C=C(COC(=O)Cc1ccc(O)c(OC)c1)C[C@]1(O)C(=O)C(C)=C[C@@H]41)O2", "note": "[RTX, resiniferatoxin]", "values": [{"measurement": "mitochondrial Ca2+ efflux", "setting": "human mitoTRPV1", "value": "enhanced a Ca^2+ efflux from the mitochondria"}, {"measurement": "mitochondrial temperature", "setting": "human mitoTRPV1", "value": "significant reduction in the mitochondrial temperature"}]}
{"molecule": "C=CC1=C[C@@H]2[C@@H]3O[C@]4(C[C@H]5CCC[C@@]6(CC[C@@]7(O[C@@H](CC[C@@]7(C)O)CC(=C)CCCC7=NC[C@H](C)[C@@H](C)C[C@@]72CC1)O6)O5)C[C@@H](C)[C@@H](O)[C@H]3O4", "note": "[PnTX-G]", "values": [{"measurement": "type of inhibition of α12βεδ nAChRs", "setting": "[3]", "value": "competitive and reversible inhibitors"}]}
{"molecule": "CCCCCCCC/C=C\\CCCCCCCC(=O)NCCc1c[nH]c2ccc(O)cc12", "note": "[OS, oleoyl serotonin]", "values": [{"measurement": "mode of action on CB1 receptors", "setting": "CB1 receptors", "value": "competitive antagonist"}, {"measurement": "mode of action on CB2 receptors", "setting": "CB2 receptors", "value": "non-competitive blocker"}, {"measurement": "activity on other receptors and channels", "setting": "[7]", "value": "does not show significant activity"}, {"measurement": "effect on brain-related neurological functions", "setting": "mice", "value": "anxiolytic effect"}]}
{"molecule": "CC1=C[C@@H](C2=C(C)[C@@H]3/C=C(\\C)[C@@H](O)CC[C@@H]4C[C@@H](C)[C@@H](O4)/C(C)=C/CCC4=NCCC[C@@]43CC2)OC1=O", "note": "[GYM-A]", "values": [{"measurement": "type of inhibition of α12βεδ nAChRs", "setting": "[3]", "value": "competitive and reversible inhibitors"}]}
